Like-named read-outs stand apart in the source and are kept apart here.
Tests used:
KKAY mice = assay: Hypoglycemic and hypolipidemic actions in mice (Test Example 1); assay type: in vivo; conditions: Mus musculus, po, 96 h, 0.005% in powdery diet, four days, non-treated group taken as 100%
Procedure: Test compounds were mixed in a powdery diet (CE-2, Japan Clea) at the concentration of 0.005%, and freely given to KKAY mice (9 to 12 weeks old, 5 mice in a group), a model of obese and non-insulin dependent diabetes (type 2 diabetes), for four days. During this period, water was given freely. Blood was sampled from orbital venous plexus, and glucose and triglyceride levels in plasma separated from blood were determined enzymatically using L type Wako Glu2 (Wako Pure Chemical Industries, Ltd.) or L type Wako TG·H (Wako Pure Chemical Industries, Ltd.), respectively.
In the table, “hypoglycemic action (%)” means the rate of decrease (%) in the blood glucose level of the treated group when the blood glucose level of the non-treated group is taken as 100%. In addition, the “hypolipidemic action (%)” means the rate of decrease (%) in the blood triglyceride level of the treated group when the blood triglyceride level of the non-treated group is taken as 100%.

PPARγ-RXRα heterodimer = target: T1, PPARγ-RXRα heterodimer (Homo sapiens, UniProt P37231); assay: PPARγ-RXRα heterodimer ligand activity, luciferase reporter in PPARγ:RXRα:4ERPP/CHO-K1 cells (Test Example 3); assay type: cell-based; conditions: 18-48 hours, concentration for 50% of the maximum fold induction
T1 construct: expressed in transfected cells; host or cells: CHO-K1
T1 sequence (P37231 1-477 isoform P37231-2): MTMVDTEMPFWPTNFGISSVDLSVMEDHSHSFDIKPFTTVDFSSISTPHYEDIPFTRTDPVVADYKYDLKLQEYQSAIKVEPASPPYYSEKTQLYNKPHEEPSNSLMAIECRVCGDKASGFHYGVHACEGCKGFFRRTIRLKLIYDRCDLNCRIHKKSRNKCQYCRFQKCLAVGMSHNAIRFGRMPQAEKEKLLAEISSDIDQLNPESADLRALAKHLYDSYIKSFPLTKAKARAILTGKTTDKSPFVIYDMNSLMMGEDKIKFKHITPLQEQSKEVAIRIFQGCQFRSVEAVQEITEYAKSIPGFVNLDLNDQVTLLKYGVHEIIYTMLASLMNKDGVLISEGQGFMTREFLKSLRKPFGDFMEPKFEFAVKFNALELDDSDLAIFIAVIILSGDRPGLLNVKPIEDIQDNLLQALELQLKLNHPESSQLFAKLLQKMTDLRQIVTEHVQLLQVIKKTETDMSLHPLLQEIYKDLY
T1 sequence (P19793 1-462 partner): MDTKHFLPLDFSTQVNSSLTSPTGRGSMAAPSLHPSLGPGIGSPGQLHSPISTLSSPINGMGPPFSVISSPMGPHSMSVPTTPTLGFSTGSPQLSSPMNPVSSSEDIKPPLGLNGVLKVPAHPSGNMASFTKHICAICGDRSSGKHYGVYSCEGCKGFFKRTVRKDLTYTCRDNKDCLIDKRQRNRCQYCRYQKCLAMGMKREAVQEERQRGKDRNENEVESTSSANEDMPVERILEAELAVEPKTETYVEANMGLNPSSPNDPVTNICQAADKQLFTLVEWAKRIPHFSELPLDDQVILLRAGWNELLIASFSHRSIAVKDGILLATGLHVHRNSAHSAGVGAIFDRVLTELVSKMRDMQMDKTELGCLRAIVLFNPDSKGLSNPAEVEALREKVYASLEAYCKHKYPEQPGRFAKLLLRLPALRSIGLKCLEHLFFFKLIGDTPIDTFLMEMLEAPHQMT
Procedure: A PPARγ: RXRα: 4ERPP/CHO-K1 cells obtained in Reference Example 8a described later were cultured in HAM F12 medium (produced by Life Technologies, Inc., USA) containing 10% Fetal bovine serum (produced by Life Technologies, Inc., USA) and then inoculated to a 96-well white plate (produced by Corning Costar Corporation, USA) at the density of 2×10^4 cells/well, and cultured in a CO2 gas incubator at 37° C. overnight.
After removing the medium from 96 well white plate, 80 μl of HAM F12 medium containing 0.1% fatty acid-free bovine serum albumin (BSA) and 20 μl of test compound were added, which was cultured in a CO2 gas incubator at 37° C. for 18-48 hours. After removing the medium, 40 μl of PIKKAGENE 7.5 (produced by Wako Pure Chemical Industries, Ltd.) diluted twice with HBSS (HANKS' BALANCED SALT SOLUTION)(produced by BIO WHITTAKER Inc., USA), was added. After stirring, the luciferase activity was determined using 1420 ARVO Multilabel Counter (produced by PerkinElmer Inc., USA).
A fold induction was calculated based on the luciferase activity of each test compound by taking the luciferase activity in the non-treatment group as 1. The values of the test compound concentration and the fold induction were analyzed using PRISM (produced by GraphPad Software Inc. USA) to calculate the EC50 values, the effective concentration of a test compound for 50% of the maximum fold induction.
After a CHO-K1 cell cultured in a 150 cm^2 cell culture flask (750 ml)(produced by Corning Costar Corporation, USA) containing HAM F12 medium (produced by Life Technologies, Inc., USA) supplemented with 10% Fetal Bovine Serum (produced by Life Technologies, Inc., USA) was scraped by treating with 0.5 g/L trypsin-0.2 g/L EDTA (ethylenediaminetetraacetic acid) (produced by Life Technologies, Inc., USA), the cell was washed with PBS (phosphate-buffered saline) (produced by Life Technologies, Inc., USA), centrifuged (1000 rpm, 5 minutes), and then suspended in PBS. Subsequently, a DNA was introduced into the cell under the condition shown below using GENE PULSER (produced by Bio-Rad Laboratories, USA).
Namely, to a cuvette having a 0.4 cm gap, added were 8×10^6 cells and 10 μg of plasmid pVgRXR2-hPPARγ obtained in Reference Example 7a and 10 μg of reporter plasmid pGL3-4ERPP-TK neo obtained in Reference Example 5a, which was subjected to electroporation at the voltage of 0.25 kV under the capacitance of 960 μF. Subsequently, the cell was transferred into a HAM F12 medium containing 10% Fetal Bovine Serum and cultured for 24 hours and then the cell was scraped again and centrifuged, and then suspended in HAM F12 medium containing 10% Fetal Bovine Serum supplemented with 500 μg/ml of GENETICIN (produced by Life Technologies, Inc., USA) and 250 μg/ml of ZEOCIN (produced by Invitrogen, USA). The obtained suspension was diluted to the density of 10^4 cells/ml and inoculated to a 96-well plate (produced by Corning Costar Corporation, USA), which was cultured in a CO2 gas incubator at 37° C., whereby obtaining a GENETICIN- and ZEOCIN-resistant transformant.
Subsequently, after the transformant cell line thus obtained was cultured in a 24-well plate (produced by Corning Costar Corporation, USA), selected was a cell line in which the luciferase was expressed and induced, i.e., PPARγ:RXRα:4ERPP/CHO-K1 cell by addition of 10 μM of pioglitazone hydrochloride.

[1] = rate of decrease in blood glucose level, read-out: Hypoglycemic action (%)
[2] = rate of decrease in blood triglyceride level, read-out: Hypolipidemic action (%)

Row | EC50 (PPARγ-RXRα heterodimer) [nM] | melting point [°C] | SMILES | inhibition in vivo at 0.005 % in diet (KKAY mice; [1]) [%] | inhibition in vivo at 0.005 % in diet (KKAY mice; [2]) [%]
1 | 22 | 121 to 122 | CCCCc1nn(-c2ccc(C(F)(F)F)cn2)cc1CCCOc1c(CC(=O)O)cccc1OC [Example 197, [2-(3-{3-butyl-1-[5-(trifluoromethyl)-2-pyridyl]-1H-pyrazol-4-yl}propoxy)-3-methoxyphenyl]acetic acid] | 45 | 65
2 | 18 | 102 to 103 | CCC(CC)c1nn(-c2ccc(C(F)(F)F)cn2)cc1CCCOc1c(F)cccc1CC(=O)O [Example 214, [2-(3-{3-(1-ethylpropyl)-1-[5-(trifluoromethyl)-2-pyridyl]-1H-pyrazol-4-yl}propoxy)-3-fluorophenyl]acetic acid] | 44 | 52
3 | 20 | 65 to 66 | CCC(CC)c1nn(-c2ccc(C(F)(F)F)cn2)cc1CCCOc1ccccc1CC(=O)O [Example 215, [2-(3-{3-(1-ethylpropyl)-1-[5-(trifluoromethyl)-2-pyridyl]-1H-pyrazol-4-yl}propoxy)phenyl]acetic acid] | 50 | 45
4 | 18 | 117 to 118 | CCC(C)c1nn(-c2ccc(C(F)(F)F)cn2)cc1CCCOc1c(CC(=O)O)cccc1OC (centres unmarked) [Example 216, [3-methoxy-2-(3-{3-(1-methylpropyl)-1-[5-(trifluoromethyl)-2-pyridyl]-1H-pyrazol-4-yl}propoxy)phenyl]acetic acid] | 46 | 61
5 | 51 | 152 to 153 | COc1cccc(CC(=O)O)c1OCCCc1cn(-c2ccc(Br)cn2)nc1C(C)C [Example 218, (2-{3-[1-(5-bromo-2-pyridyl)-3-isopropyl-1H-pyrazol-4-yl]propoxy}-3-methoxyphenyl)acetic acid] | 34 | 43
6 | 9.6 | 107 to 108 | CCCC(C)c1nn(-c2ccc(C(F)(F)F)cn2)cc1CCCOc1c(CC(=O)O)cccc1OC (centres unmarked) [Example 220, [3-methoxy-2-(3-{3-(1-methylbutyl)-1-[5-(trifluoromethyl)-2-pyridyl]-1H-pyrazol-4-yl}propoxy)phenyl]acetic acid] | 44 | 50
7 | 12 | 83 to 84 | CCOc1cccc(CC(=O)O)c1OCCCc1cn(-c2ccc(C(F)(F)F)cn2)nc1C(CC)CC [Example 221, [3-ethoxy-2-(3-{3-(1-ethylpropyl)-1-[5-(trifluoromethyl)-2-pyridyl]-1H-pyrazol-4-yl}propoxy)phenyl]acetic acid] | 46 | 21
8 | 21 | 146 to 147 | CCCc1nn(-c2ccc(C(F)(F)F)cn2)cc1CCCOc1c(CC)cccc1CC(=O)O [Example 229, [3-ethyl-2-(3-{3-propyl-1-[5-(trifluoromethyl)-2-pyridinyl]-1H-pyrazol-4-yl}propoxy)phenyl]acetic acid] | 41 | 49
9 | 26 | 146 to 147 | CC(C)c1nn(-c2ccc(C(F)(F)F)cn2)cc1CCCOc1c(Br)cccc1CC(=O)O [Example 235, [3-bromo-2-(3-{3-isopropyl-1-[5-(trifluoromethyl)-2-pyridinyl]-1H-pyrazol-4-yl}propoxy)phenyl]acetic acid] | 43 | 64
10 | 35 | 141 to 142 | CC(C)c1nn(-c2ccc(C(F)(F)F)cn2)cc1CCCOc1c(Cl)cccc1CC(=O)O [Example 239, [3-chloro-2-(3-{3-isopropyl-1-[5-(trifluoromethyl)-2-pyridinyl]-1H-pyrazol-4-yl}propoxy)phenyl]acetic acid] | 42 | 65
11 | 50 | 132 to 133 | COc1cccc(CC(=O)O)c1OCCCc1cn(-c2ccc(C)cn2)nc1C(C)C [Example 272, (3-methoxy-2-{3-[3-isopropyl-1-(5-methyl-2-pyridyl)-1H-pyrazol-4-yl]propoxy}phenyl)acetic acid] | 48 | 69

From patent publication US20060148858A1, “1, 2-Azole derivatives with hypoglycemic and hypolipidemic activity” (priority 2002, published 2006)
